Data: patent US9073929B2, “Aldosterone synthase inhibitors” (ElexoPharm GmbH, priority 2011, dated 2015)

Columns and labels:
human CYP11B1 = target: T1, human CYP11B1 (Homo sapiens, UniProt P15538); experiment: V79-Human-CYP11B1 cell assay (cortisol HTRF); type: cell-based; conditions: V79-hCYP11B1 cells, 250 nM 11-deoxycortisol, 3 hours
T1 construct: expressed in transfected cells; host or cells: V79MZh11B1 cells
T1 sequence (P15538 25-503): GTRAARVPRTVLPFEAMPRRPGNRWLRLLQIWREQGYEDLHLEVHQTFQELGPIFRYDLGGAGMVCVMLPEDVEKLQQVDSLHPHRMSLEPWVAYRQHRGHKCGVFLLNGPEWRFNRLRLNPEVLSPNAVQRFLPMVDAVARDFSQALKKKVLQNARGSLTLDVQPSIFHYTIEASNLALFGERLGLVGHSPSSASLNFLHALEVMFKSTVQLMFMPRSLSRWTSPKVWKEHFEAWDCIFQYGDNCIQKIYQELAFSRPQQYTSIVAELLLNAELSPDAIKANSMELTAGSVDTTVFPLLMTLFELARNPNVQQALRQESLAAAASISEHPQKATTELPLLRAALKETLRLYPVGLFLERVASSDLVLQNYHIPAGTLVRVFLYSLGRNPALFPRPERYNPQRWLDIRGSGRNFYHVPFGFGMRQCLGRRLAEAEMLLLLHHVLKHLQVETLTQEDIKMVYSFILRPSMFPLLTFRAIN
Procedure: Methods for V79-Human-CYP11B2 and V79-Human-CYP11B1 Assays: V79 cell lines stably expressing the either the human CYP11B2 or the human CYP11B1 enzyme were generated using a standard transfection protocol. V79 cells were transfected with plasmids pTriEx3-Hygro-hCyp11B2 or pTriEx3-Hygro-hCyp11B1 using Lipofectamine2000 reagent. […] Single cell clones were generated by infinite dilution in DMEM supplemented with 10% FBS and 400 μg/mL hygromycin until single colonies were obtained. […] For testing of inhibitors, cells were harvested at 80% confluency with 0.5% Trypsan-EDTA, washed once in PBS, and reconstituted in DMEM+0.1% BSA media at a cell concentration of 400,000 cells/mL. 25 μl of cells were added to a 384 well tissue culture treated plate and mixed with 0.25 μl of inhibitor or DMSO (1% final DMSO concentration) for 1 hour at 37° C., 5% CO2. […] The reaction was carried out for 3 hours at 37° C., 5% CO2 and was stopped by harvesting the supernatants. […] IC50's for the inhibitor were determined by plotting the amount of product formed against the concentration of inhibitor using sigmoidal dose-response curve (variable slope) fit in GraphPad.

human CYP11B2 = target: T2, human CYP11B2 (Homo sapiens, UniProt P19099); experiment: V79-Human-CYP11B2 cell assay (aldosterone HTRF); type: cell-based; conditions: V79-hCYP11B2 cells, 125 nM 11-deoxycorticosterone, 3 hours
T2 construct: expressed in transfected cells; host or cells: V79 cells (clone V79-hCYP11B2-CLE9)
T2 sequence (P19099 25-503): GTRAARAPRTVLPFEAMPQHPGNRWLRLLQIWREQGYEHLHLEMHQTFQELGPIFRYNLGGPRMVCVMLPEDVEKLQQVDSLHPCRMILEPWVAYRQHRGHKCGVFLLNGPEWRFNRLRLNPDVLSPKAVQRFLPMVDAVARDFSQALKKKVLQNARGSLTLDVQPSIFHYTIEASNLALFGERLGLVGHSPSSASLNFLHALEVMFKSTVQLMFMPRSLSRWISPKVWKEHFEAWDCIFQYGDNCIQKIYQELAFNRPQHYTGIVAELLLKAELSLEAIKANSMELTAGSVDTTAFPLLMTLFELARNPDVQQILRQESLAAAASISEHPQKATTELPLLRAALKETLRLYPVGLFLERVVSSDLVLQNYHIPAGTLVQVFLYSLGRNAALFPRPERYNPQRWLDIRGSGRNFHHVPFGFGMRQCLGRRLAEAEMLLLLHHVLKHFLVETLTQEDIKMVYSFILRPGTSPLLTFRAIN
Procedure: Methods for V79-Human-CYP11B2 and V79-Human-CYP11B1 Assays:
V79 cell lines stably expressing the either the human CYP11B2 or the human CYP11B1 enzyme were generated using a standard transfection protocol. V79 cells were transfected with plasmids pTriEx3-Hygro-hCyp11B2 or pTriEx3-Hygro-hCyp11B1 using Lipofectamine2000 reagent. V79 cells that stably express the human CYP11B2 or human CYP11B1 enzyme were selected for and maintained in DMEM supplemented with 10% FBS and 400 μg/mL hygromycin for ˜2 weeks. Single cell clones were generated by infinite dilution in DMEM supplemented with 10% FBS and 400 μg/mL hygromycin until single colonies were obtained. Clones V79-hCYP11B2-CLE9 and V79-hCYP11B1-8C7, were determined to produce the most aldosterone and cortisol, respectively, and were selected for inhibitor screening. […] The amount of product in the supernatant (aldosterone for CYP11B2 assay and cortisol for the CYP11B1 assay) was measured using HTRF-based assay kit (Aldosterone HTRF-CisBio#64ALDPEB, Cortisol HTRF-CisBio #631DC002-CORT). IC50's for the inhibitor were determined by plotting the amount of product formed against the concentration of inhibitor using sigmoidal dose-response curve (variable slope) fit in GraphPad.

| SMILES | IC50 (human CYP11B1) | IC50 (human CYP11B2) |
| --- | --- | --- |
| Cc1c(F)cncc1-c1cc(F)c2c(c1)CCc1nncn1-2 [Example 17, 9-fluoro-7-(5-fluoro-4-methylpyridin-3-yl)-4,5-dihydro-[1,2,4]triazolo[4,3a] quinoline] | 1500 nM | – |
| Cc1c(-c2cc(Cl)c3c(c2)CCc2nnc(C)n2-3)cncc1C(C)(O)C(F)(F)F (centres unmarked) [Example 37, 1-(5-(9-chloro-1-methyl-4,5-dihydro-[1,2,4]triazolo[4,3-a]quinolin-7-yl)-4-methylpyridin-3-yl)-1,1,1-trifluoropropan-2-ol] | 69 nM | – |
| COC(=O)C1(c2cncc(-c3ccc4c(c3)CCc3nncn3-4)c2)CC1 [Step D, p 76, methyl 1-[5-(4,5-dihydro[1,2,4]triazolo[4,3-a]quinolin-7-yl)-3-pyridinyl]cyclopropanecarboxylate] | 157 nM | 17 nM |
| Cc1c(-c2cc(Cl)c3c(c2)CCc2nnc(C)n2-3)cncc1C(C)(O)C(F)(F)F (centres unmarked) [Example 38, 1-(5-(9-chloro-1-methyl-4,5-dihydro-[1,2,4]triazolo[4,3-a]quinolin-7-yl)-4-methylpyridin-3-yl)-1,1,1-trifluoropropan-2-ol] | 527 nM | – |
